We go through 12 molecules from patent US10654816B2, “Compounds and compositions for treating conditions associated with NLRP activity” (NOVARTIS INFLAMMASOME RESEARCH, INC., priority 2017, dated 2020).

The term IC50 denotes the point on the concentration scale where inhibition reaches its midpoint.

For the first assay, the system named is IL-1β production in PMA-differentiated THP-1 cells. The assay is described as follows: IL-1β production in PMA-differentiated THP-1 cells stimulated with gramicidin (hTHP-1 assay, HTRF readout; Procedures 1-3). The format is cell-based, human. The conditions noted are these: Homo sapiens, THP-1, hTHP-1 assay containing 2% fetal bovine serum; average; class symbols; read-out: hTHP-1 IC50 (Average IC50 of compounds in hTHP-1 assay). The protocol: The Following Protocol is Suitable for Testing the Activity of the Compounds Disclosed Herein. Procedure 1: IL-1B Production in PMA-Differentiated THP-1 Cells Stimulated with Gramicidin.
THP-1 cells were purchased from the American Type Culture Collection and sub-cultured according to instructions from the supplier. Cells were cultured in complete RPMI 1640 (containing 10% heat inactivated FBS, penicillin (100 units/ml) and streptomycin (100 μg/ml)), and maintained in log phase prior to experimental setup. Prior to the experiment, compounds were dissolved in dimethyl sulfoxide (DMSO) to generate a 30 mM stock. The compound stock was first pre-diluted in DMSO to 3, 0.34, 0.042 and 0.0083 mM intermediate concentrations and subsequently spotted using Echo550 liquid handler into an empty 384-well assay plate to achieve desired final concentration (e.g. 100, 33, 11, 3.7, 1.2, 0.41, 0.14, 0.046, 0.015, 0.0051, 0.0017 μM). DMSO was backfilled in the plate to achieve a final DMSO assay concentration of 0.37%. The plate was then sealed and stored at room temperature until required.
THP-1 cells were treated with PMA (Phorbol 12-myristate 13-acetate) (20 ng/ml) for 16-18 hours. On the day of the experiment the media was removed and adherent cells were detached with trypsin for 5 minutes. Cells were then harvested, washed with complete RPMI 1640, spun down, and resuspended in RPMI 1640 (containing 2% heat inactivated FBS, penicillin (100 units/ml) and streptomycin (100 μg/ml). The cells were plated in the 384-well assay plate containing the spotted compounds at a density of 50,000 cells/well (final assay volume 50 μl). Cells were incubated with compounds for 1 hour and then stimulated with gramicidin (5 μM) (Enzo) for 2 hours. Plates were then centrifuged at 340 g for 5 min. Cell free supernatant (40 μL) was collected using a 96-channel PlateMaster (Gilson) and the production of IL-1β was evaluated by HTRF (cisbio). The plates were incubated for 18 h at 4° C. and read using the preset HTRF program (donor emission at 620 nm, acceptor emission at 668 nm) of the SpectraMax i3x spectrophotometer (Molecular Devices, software SoftMax 6). A vehicle only control and a dose titration of CRID3 (100-0.0017 μM) were run concurrently with each experiment.
Procedure 2: IL-1β Production in PMA-Differentiated THP-1 Cells Stimulated with Gramicidin.
THP-1 cells were purchased from the American Type Culture Collection and sub-cultured according to instructions from the supplier. Prior to experiments, cells were cultured in complete RPMI 1640 (containing 10% heat inactivated FBS, penicillin (100 units/ml) and streptomycin (100 μg/ml)), and maintained in log phase prior to experimental setup. Prior to the experiment THP-1 were treated with PMA (Phorbol 12-myristate 13-acetate) (20 ng/ml) for 16-18 hours. Compounds were dissolved in dimethyl sulfoxide (DMSO) to generate a 30 mM stock.
On the day of the experiment the media was removed and adherent cells were detached with trypsin for 5 minutes. Cells were then harvested, washed with complete RPMI 1640, spun down, resuspended in RPMI 1640 (containing 2% heat inactivated FBS, penicillin (100 units/ml) and streptomycin (100 μg/ml). The cells were plated in a 384-well plate at a density of 50,000 cells/well (final assay volume 50 μl). Compounds were first dissolved in assay medium to obtain a 5× top concentration of 500 μM. 10 step dilutions (1:3) were then undertaken in assay medium containing 1.67% DMSO. 5× compound solutions were added to the culture medium to achieve desired final concentration (e.g. 100, 33, 11, 3.7, 1.2, 0.41, 0.14, 0.046, 0.015, 0.0051, 0.0017 μM). Final DMSO concentration was at 0.37%. Cells were incubated with compounds for 1 hour and then stimulated with gramicidin (5 μM) (Enzo) for 2 hours. Plates were then centrifuged at 340 g for 5 min. Cell free supernatant (40 μL) was collected using a 96-channel PlateMaster (Gilson) and the production of IL-1β was evaluated by HTRF (cisbio). […]
A general note: TR-FRET usually uses a lanthanide donor and a delayed reading to cut background.
`CC(C)c1cc(F)cc(C(C)C)c1NC(=O)N=S(N)(=O)c1ccc(CN(C)C)cc1` (single isomer, unassigned) [Example 132, (S)- or (R)-4-((dimethylamino)-methyl)-N′-(4-fluoro-2,6-diisopropylphenylcarbamoyl)-benzenesulfonimidamide]: the IC50 fell in the range of 1 to 5 µM.

On to `CC(C)(O)c1cnc(S(N)(=O)=NC(=O)Nc2c3c(cc4c2CCO4)CCC3)s1` (stereo not drawn) [Example 257, 5-(2-hydroxypropan-2-yl)-N′-((3,5,6,7-tetrahydro-2H-indeno[5,6-b]furan-4-yl)carbamoyl)thiazole-2-sulfonimidamide], for which the IC50 fell in the range of 0.04 to 0.2 µM.

As to `CC(C)c1ccc(C#N)c(C(C)C)c1NC(=O)N=S(N)(=O)c1ccc(C(C)(C)O)s1` (stereo not drawn) [Example 254, N′-((3-cyano-2,6-diisopropylphenyl)carbamoyl)-5-(2-hydroxypropan-2-yl)thiophene-2-sulfonimidamide], the IC50 lay within 1 to 5 µM.

For the molecule `CC(C)(O)c1ccc(S(N)(=O)=NC(=O)Nc2c3c(cc4c2CCC4)CCC3)cn1` (stereo not drawn) [Example 260, N′-((1,2,3,5,6,7-hexahydro-s-indacen-4-yl)carbamoyl)-6-(2-hydroxypropan-2-yl)pyridine-3-sulfonimidamide], the concentration for half-maximal inhibition (IC50) lay within 0.2 to 1 µM.

For `C#CCN(C)Cc1ccc(S(N)(=O)=NC(=O)Nc2c3c(cc4c2CCC4)CCC3)cc1` (stereo not drawn) [Example 239, N′-(1,2,3,5,6,7-hexahydro-s-indacen-4-ylcarbamoyl)-4-((methyl(prop-2-ynyl)amino)methyl)benzene-sulfonimidamide], the IC50 is 1 to 5 µM.

For the molecule `CC(C)(O)c1csc(S(N)(=O)=NC(=O)Nc2c3c(cc4c2CCC4)CCC3)c1` (stereo not drawn) [Example 74, N′-(1,2,3,5,6,7-hexahydro-s-indacen-4-ylcarbamoyl)-4-(2-hydroxypropan-2-yl)thiophene-2-sulfonimidamide], the IC50 was […].

In the case of `CC(C)c1cc(OC(F)F)cc(C2CC2)c1NC(=O)N=S(N)(=O)c1ccc(CN(C)C)cc1` (stereo not drawn) [Example 37, N′-(2-cyclopropyl-4-(difluoromethoxy)-6-isopropylphenylcarbamoyl)-4-((dimethylamino)methyl)benzene sulfonimidamide], the IC50 is 1 to 5 µM.

On to `Cc1oc([S@@](N)(=O)=NC(=O)Nc2c3c(cc4c2CCC4)CCC3)cc1C(C)(C)O` [Example 2, (S)—N′-(1,2,3,5,6,7-hexahydro-s-indacen-4-ylcarbamoyl)-4-(2-hydroxypropan-2-yl)-5-methylfuran-2-sulfonimidamide], for which the IC50 is 0.008 to 0.04 µM.

The assay is the same for the next values; noted with them: Homo sapiens, THP-1, hTHP-1 assay containing 2% fetal bovine serum; average; given as bound; read-out: hTHP-1 IC50 (Average IC50 of compounds in hTHP-1 assay).
Regarding `Cc1nn(C)cc1S(N)(=O)=NC(=O)Nc1c(C(C)C)cc(F)cc1C(C)C` (stereo not drawn) [Example 209, N′-((4-fluoro-2,6-diisopropylphenyl)carbamoyl)-1,3-dimethyl-1H-pyrazole-4-sulfonimidamide], the IC50 is over 30 µM.

For the molecule `Cc1cc(NC(=O)N=S(N)(=O)c2ccc(C(C)(C)O)s2)cc(C)n1` (stereo not drawn) [compound 78, N-((2,6-dimethylpyridin-4-yl)carbamoyl)-5-(2-hydroxypropan-2-yl)thiophene-2-sulfonimidamide], the IC50 is over 30 µM.

With `CC(C)(O)c1ncc(S(N)(=O)=NC(=O)Nc2c3c(cc4c2C(O)CC4)CCC3)s1` (single isomer, unassigned) [Example 369, (S, R/S) or (R, R/S)-N′-((3-hydroxy-1,2,3,5,6,7-hexahydro-s-indacen-4-yl)carbamoyl)-2-(2-hydroxypropan-2-yl)thiazole-5-sulfonimidamide], the IC50 is over 30 µM.

The assay is the same for the next values; noted with them: hTHP-1 assay containing 2% fetal bovine serum; average; given as bound; read-out: hTHP-1 IC50 (Average IC50 of compounds in hTHP-1 assay).
Consider `CCc1ccc2cn(C)nc2c1NC(=O)N=S(N)(=O)c1ncc(C(C)(C)O)s1` (single isomer, unassigned) [Example 330, (R) or (S)-N′-((6-ethyl-2-methyl-2H-indazol-7-yl)carbamoyl)-5-(2-hydroxypropan-2-yl)thiazole-2-sulfonimidamide], for which the IC50 is over 30 µM.
